Measurements: patent EP1757607A1, “N5-substituted benzo¬2,3|azepino¬4,5-b|indol-6-ones for treating tropical diseases” (Molisa GmbH, priority 2005, dated 2007)

What was measured:
TryS = biological target: T1, TryS (Crithidia fasciculata, UniProt O60993); test: Screening of potential inhibitors against TryS (malachite green, A650); type: biochemical; conditions: 10 µM compound; 90.75 nM TryS, 0.675 mM GSH, 6.75 mM spermidine, 45 µM ATP, room temperature, 60 min; triplicates; read-out: inhibitory effect (%)
T1 sequence (O60993 1-652): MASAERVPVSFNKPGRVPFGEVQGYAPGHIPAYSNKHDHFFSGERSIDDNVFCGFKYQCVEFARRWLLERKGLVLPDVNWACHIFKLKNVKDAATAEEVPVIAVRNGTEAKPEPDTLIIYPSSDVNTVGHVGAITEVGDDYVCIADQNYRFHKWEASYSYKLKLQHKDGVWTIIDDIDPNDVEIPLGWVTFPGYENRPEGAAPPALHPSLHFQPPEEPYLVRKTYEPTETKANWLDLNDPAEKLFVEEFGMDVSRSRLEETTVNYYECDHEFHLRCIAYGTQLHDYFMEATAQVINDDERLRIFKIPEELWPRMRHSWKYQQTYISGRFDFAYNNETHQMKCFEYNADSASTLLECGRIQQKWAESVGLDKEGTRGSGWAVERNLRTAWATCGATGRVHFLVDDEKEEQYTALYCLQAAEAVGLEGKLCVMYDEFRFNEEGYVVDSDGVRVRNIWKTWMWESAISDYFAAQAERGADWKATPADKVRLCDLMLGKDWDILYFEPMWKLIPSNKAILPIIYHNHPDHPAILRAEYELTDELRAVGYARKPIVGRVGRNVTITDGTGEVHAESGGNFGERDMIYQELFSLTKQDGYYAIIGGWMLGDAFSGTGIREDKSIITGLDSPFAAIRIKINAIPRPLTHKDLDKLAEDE
Procedure: The compounds were screened against TryS at 10 µM compound concentration. The inhibitory effect of each compound on TryS was measured in triplicates. Obvious outliers from the triplicates were removed. If the standard deviation of the two remaining inhibition values exceeded 25 % the measurement was repeated.
The screen was performed under the following conditions: 90.75 nM TryS was incubated with 0.675 mM GSH, 6.75 mM spermidine, 45 µM ATP, and 10 µM compound in a total volume of 80 µl 100 mM HEPES pH 7.5, 10 mM MgSO4, 0.1 mM EDTA, 5 mM DTT at room temperature for 60 min. Reaction was stopped by addition of 10 µl malachitgreen reagent. A650 was measured after 20 min. No compound was present in the positive controls (C+). Neither GSH nor spermidine was present in the negative controls (C-).

[1] = biological target: T2, Trypanothione Synthetase TS (Crithidia fasciculata, UniProt O60993); test: Inhibition of Trypanothione Synthetase (Table 1); type: biochemical; conditions: compound concentration not stated for Table 1
T2 sequence (O60993 1-652): T1 sequence (O60993 1-652)

Compound | inhibition at 10 µM (TryS) | Inhibition of TS % [1]
NCCNC(=O)CN1C(=O)Cc2c([nH]c3ccc(Br)cc23)-c2ccccc21 [Compound 17, N-(2-Amino-1-yl-ethyl)-2-(9-bromo-6-oxo-6,7-dihydro-5H-benzo[2,3]azepino[4,5-b]indol-5-yl)-acetamide] | 96.8% | 78.6%
CNCCNC(=O)CN1C(=O)Cc2c([nH]c3ccc(Br)cc23)-c2ccccc21 [Compound 13, 2-(9-Bromo-6-oxo-6,7-dihydro-5H-benzo[2,3]azepino[4,5-b]indol-5-yl)-N-(2-methylamino-1-yl-ethyl)-acetamide] |  | 92.4%
NCCCCNC(=O)CN1C(=O)Cc2c([nH]c3ccc(Br)cc23)-c2ccccc21 [Compound 19, N-(4-Amino-1-yl-butyl)-2-(9-bromo-6-oxo-6,7-dihydro-5H-benzo[2,3]azepino[4,5-b]indol-5-yl)-acetamide] | 54.3% | 16.2%
2-(9-Bromo-6-oxo-6,7-dihydro-5H-benzo[2,3]azepino[4,5-b]indol-5-yl)-acetic acid hydrazide [Compound 26] |  | 0%
NCCCNCCCCNC(=O)CN1C(=O)Cc2c([nH]c3ccc(Br)cc23)-c2ccccc21 [Compound 20, N-(4-(3-Amino-1-yl-propylamino)-1-yl-butyl)-2-(9-bromo-6-oxo-6,7-dihydro-5H-benzo[2,3]azepino[4,5-b]indol-5-yl)-acetamide] | 47.6% | 24.6%
O=C(CN1C(=O)Cc2c([nH]c3ccc(Br)cc23)-c2ccccc21)N1CCNCC1 [Compound 25, N-[2-(9-Bromo-6-oxo-6,7-dihydro-5H-benzo[2,3]azepino[4,5-b]indol-5-yl)-acetyl]-piperazine] |  | 76.5%
CNCCNC(=O)CN1C(=O)Cc2c([nH]c3ccc(C)cc23)-c2ccccc21 [Compound 24, 2-(9-Methyl-6-oxo-6,7-dihydro-5H-benzo[2,3]azepino[4,5-b]indol-5-yl)-N-(2-methylamino-1-yl-ethyl)-acetamide] |  | 20.5%
NCCCCNCCCNC(=O)CN1C(=O)Cc2c([nH]c3ccc(Br)cc23)-c2ccccc21 [Compound 21, N-(3-(4-Amino-1-yl-butylamino)-1-yl-propyl)-2-(9-bromo-6-oxo-6,7-dihydro-5H-benzo[2,3]azepino[4,5-b]indol-5-yl)-acetamide] | 47.6% | 22.5%

Results, then the compound that gave them:

inhibition at 10 µM (TryS) | Inhibition of TS % [1] | Compound
 | 51.7% | CNCCNC(=O)CN1C(=O)Cc2c([nH]c3ccc(C#N)cc23)-c2ccccc21 [Compound 22, 2-(9-Cyano-6-oxo-6,7-dihydro-5H-benzo[2,3]azepino[4,5-b]indol-5-yl)-N-(2-methylamino-1-yl-ethyl)-acetamide]
85.1% | 37.8% | NCCCNC(=O)CN1C(=O)Cc2c([nH]c3ccc(Br)cc23)-c2ccccc21 [Compound 18, N-(3-Amino-1-yl-propyl)-2-(9-bromo-6-oxo-6,7-dihydro-5H-benzo[2,3]azepino[4,5-b]indol-5-yl)-acetamide]
 | 0% | CNCCNC(=O)CN1C(=O)Cc2c([nH]c3ccccc23)-c2ccccc21 [Compound 23, N-(2-Methylamino-1-yl-ethyl)-2-(6-oxo-6,7-dihydro-5H-benzo[2,3]azepino[4,5-b]indol-5-yl)-acetamide]
